{
  "source": "patent US4377591A",
  "about": "“7-Oxo-1-azabicyclo[3.2.0]hept-2-ene-2-carboxylic acid derivatives, their use and preparation” (Sankyo Company, Limited, priority 1980, dated 1983)",
  "origin": "cited, not measured here",
  "test_system": "bacteria",
  "settings": "Japanese Patent Application Kokai No. 73191/76",
  "data": [
    {"smiles": "C[C@@H](O)[C@H]1C(=O)N2C(C(=O)O)=C(SCCN)C[C@H]12", "note": "[thienamycin, (5R,6S)-3-(2-aminoethylthio)-6-[1-(R)-hydroxyethyl]-7-oxo-1-azabicyclo[3.2.0]hept-2-ene-2-carboxylic acid]", "values": [
      {"measurement": "antibacterial activity (in words)", "value": "extraordinarily potent antibacterial activity"}
    ]}
  ]
}
